{"source": "paper PMC5085131", "about": "“Cyclic AMP efflux inhibitors as potential therapeutic agents for leukemia” (Oncotarget, 2016)", "key": {"Nalm 6": {"tested_on": "Nalm 6", "experiment": "CellTiter-Glo cell viability", "format": "cell-based", "conditions": "Homo sapiens, overnight, n = 6, ± SEM, read-out: Compound EC50, Nalm 6 (cell viability)", "method": "(§1) Cell viability was determined with the CellTiter-Glo® Luminescent Cell Viability Assay (Promega). Greiner 655083 had 100 μL cRPMI +/− 4×10^4 cells/well, and dose response curves of compounds ranged from 100 μM to 1.53 nM (1% DMSO). Wells with DMSO-only served as negative controls. Samples were incubated overnight, and the assay was completed according to the manufacturer's protocol. Plates were analyzed using a Victor^3V™ 1420 Multilabel Counter (Perkin Elmer)."}, "Reh": {"tested_on": "Reh", "experiment": "CellTiter-Glo cell viability", "format": "cell-based", "conditions": "Homo sapiens, overnight, n = 6, ± SEM, read-out: Compound EC50, Reh (cell viability)", "method": "as §1"}, "RS4;11": {"tested_on": "RS4;11", "experiment": "CellTiter-Glo cell viability", "format": "cell-based", "conditions": "Homo sapiens, overnight, n = 6, ± SEM, read-out: Compound EC50, RS4;11 (cell viability)", "method": "as §1"}, "MHH Call 3": {"tested_on": "MHH Call 3", "experiment": "CellTiter-Glo cell viability", "format": "cell-based", "conditions": "Homo sapiens; overnight, n = 6, ± SEM; read-out: Compound EC50, MHH Call 3 (cell viability)", "method": "as §1"}, "[1]": {"tested_on": "primary B-ALL patient samples", "experiment": "CellTiter-Glo cell viability of primary ALL patient samples ex vivo", "format": "cell-based, human", "conditions": "for EC50: Homo sapiens; for Cell viability vs. vehicle treated sample at lower concentrations: samples from patients no. 1 and no. 5", "method": "Bone marrow samples were acquired at diagnosis from pediatric B-ALL patients. Mononuclear cells were enriched by centrifugation in Ficoll-Paque (GE Healthcare, cat. 17-1440-02) and aliquoted for storage in liquid nitrogen until use. Samples were thawed in a 37°C water bath, resuspended in 20% FBS cRPMI, and centrifuged to remove freezing medium. Cells were resuspended in conditioned medium (DMEM, 10% FBS, 50 U/ml penicillin-streptomycin, 2 mM L-glutamine) from HS-5 stromal cell cultures.\nas §1\nFor primary ALL patient samples, media consisted of 50% cRPMI, 50% conditioned DMEM from HS-5 stromal cell cultures and compounds. Cell densities ranged from 28,000-68,000 cells/well, and plates were foil-sealed prior to incubation."}, "[2]": {"tested_on": "CREB (Ser133) / ATF-1 (Ser63) phosphorylation", "experiment": "Binding of anti-phospho-CREB/ATF-1 antibody in U937 cells (flow cytometry)", "format": "cell-based, human", "conditions": "1 hour, 20 μM", "method": "Cells were suspended at 10^6 cells/ml in cRPMI and incubated for 1 hour at 37°C with 20 μM ICE compounds or forskolin (positive control). Negative control samples were treated with DMSO at equal volume. Cells were fixed with 20x volume of pre-warmed 1x solution BD Phosflow^TM Lyse/Fix Buffer (cat. 558049), incubated at 37°C for 10 minutes, permeabilized with BD Phosflow^TM Perm buffer II (cat. 558052), and incubated on ice for 30 minutes. Permeabilized cells were then washed and stained with BD Phosflow™ Alexa Fluor® 488 Mouse Anti-CREB (pS133) / ATF-1 (pS63) clone J151-21 (cat. 558435) according to the manufacturer's instructions."}, "[3]": {"design": "method as in PMID 19505822", "conditions": "cited from earlier work"}, "[4]": {"design": "method as in PMID 19505822", "conditions": "cited from earlier work", "remark": "listed apart in the source"}, "[5]": {"conditions": "mean of converged EC50s of six patient samples, read-out: Compound EC50 (Sample means), cell viability"}, "[6]": {"conditions": "primary B-ALL sample, duplicate, ± SEM, read-out: Compound EC50 (Patient no. 1), cell viability"}, "[7]": {"conditions": "primary B-ALL sample, duplicate, ± SEM, read-out: Compound EC50 (Patient no. 2), cell viability"}, "[8]": {"conditions": "primary B-ALL sample, duplicate, ± SEM, read-out: Compound EC50 (Patient no. 3), cell viability"}, "[9]": {"conditions": "primary B-ALL sample, duplicate, ± SEM, read-out: Compound EC50 (Patient no. 4), cell viability"}, "[10]": {"conditions": "primary B-ALL sample, duplicate, ± SEM, read-out: Compound EC50 (Patient no. 5), cell viability"}, "[11]": {"conditions": "primary B-ALL sample, duplicate, ± SEM, read-out: Compound EC50 (Patient no. 6), cell viability"}}, "note": "Where two headings read alike, the source gives them in different places."}
{"smiles": "Oc1c(I)cc(Cl)c2cccnc12", "note": "[Clioquinol]", "values": [{"measurement": "EC50", "setting": "Nalm 6", "value": "24.8 ± 12.1", "unit": "µM"}, {"measurement": "EC50", "setting": "Reh", "value": "21.1 ± 4.61", "unit": "µM"}, {"measurement": "EC50", "setting": "RS4;11", "value": "64.4 ± 36.6", "unit": "µM"}, {"measurement": "EC50", "setting": "MHH Call 3", "value": "67.1 ± 22.9", "unit": "µM"}, {"measurement": "EC50", "setting": "[1]; [5]", "value": 58.8, "unit": "µM"}, {"measurement": "EC50", "setting": "[1]; [6]", "value": "60.1 ± 53.5", "unit": "µM"}, {"measurement": "EC50", "setting": "[1]; [7]", "value": "158 ± 84.5", "unit": "µM"}, {"measurement": "EC50", "setting": "[1]; [8]", "value": "8.67 ± 4.84", "unit": "µM"}, {"measurement": "EC50", "setting": "[1]; [9]", "value": "48 ± 22.9", "unit": "µM"}, {"measurement": "EC50", "setting": "[1]; [10]", "value": "13.8 ± 5.23", "unit": "µM"}, {"measurement": "EC50", "setting": "[1]; [11]", "value": "63.9 ± 41.1", "unit": "µM"}, {"measurement": "Cell viability vs. vehicle treated sample at lower concentrations", "setting": "[1]", "value": "significant increase in cell viability"}, {"measurement": "Binding of anti-CREB (pS133) / ATF-1 (pS63) specific antibodies", "setting": "[2]", "value": "comparable to the adenylate cyclase stimulator forskolin positive control"}]}
{"smiles": "C[C@H]1COC2=C1C(=O)C(=O)c1c2ccc2c1CCCC2(C)C", "note": "[Cryptotanshinone]", "values": [{"measurement": "EC50", "setting": "Nalm 6", "value": "70.2 ± 29.9", "unit": "µM"}, {"measurement": "EC50", "setting": "Reh", "value": "105 ± 14.6", "unit": "µM"}, {"measurement": "EC50", "setting": "RS4;11", "value": "8.36 ± 5.84", "unit": "µM"}, {"measurement": "EC50", "setting": "MHH Call 3", "value": "126 ± 35.9", "unit": "µM"}, {"measurement": "EC50", "setting": "[1]; [5]", "value": 19.1, "unit": "µM"}, {"measurement": "EC50", "setting": "[1]; [6]", "value": "12.9 ± 5.51", "unit": "µM"}, {"measurement": "EC50", "setting": "[1]; [7]", "value": "29.8 ± 8.97", "unit": "µM"}, {"measurement": "EC50", "setting": "[1]; [8]", "value": "14 ± 9.8", "unit": "µM"}, {"measurement": "EC50", "setting": "[1]; [9]", "value": "34.4 ± 5.79", "unit": "µM"}, {"measurement": "EC50", "setting": "[1]; [10]", "value": "6.88 ± 2.89", "unit": "µM"}, {"measurement": "EC50", "setting": "[1]; [11]", "value": "16.6 ± 5.55", "unit": "µM"}]}
{"smiles": "C=C1C(=O)O[C@H]2[C@H]1CC/C(C)=C/CC[C@@]1(C)O[C@@H]21", "note": "[Parthenolide]", "values": [{"measurement": "EC50", "setting": "Nalm 6", "value": "0.72 ± 0.23", "unit": "µM"}, {"measurement": "EC50", "setting": "Reh", "value": "2.19 ± 1.34", "unit": "µM"}, {"measurement": "EC50", "setting": "RS4;11", "value": "3.07 ± 1", "unit": "µM"}, {"measurement": "EC50", "setting": "MHH Call 3", "value": "1.97 ± 0.59", "unit": "µM"}, {"measurement": "EC50", "setting": "[1]; [5]", "value": 3.15, "unit": "µM"}, {"measurement": "EC50", "setting": "[1]; [6]", "value": "4.72 ± 3.71", "unit": "µM"}, {"measurement": "EC50", "setting": "[1]; [7]", "value": "3.65 ± 1.73", "unit": "µM"}, {"measurement": "EC50", "setting": "[1]; [8]", "value": "3.17 ± 1.44", "unit": "µM"}, {"measurement": "EC50", "setting": "[1]; [9]", "value": "4.13 ± 1.92", "unit": "µM"}, {"measurement": "EC50", "setting": "[1]; [10]", "value": "0.92 ± 0.58", "unit": "µM"}, {"measurement": "EC50", "setting": "[1]; [11]", "value": "2.31 ± 0.78", "unit": "µM"}, {"measurement": "Cell viability vs. vehicle treated sample at lower concentrations", "setting": "[1]", "value": "significant increase in cell viability"}, {"measurement": "water-solubility", "setting": "[3]", "value": "Poor"}, {"measurement": "Binding of anti-CREB (pS133) / ATF-1 (pS63) specific antibodies", "setting": "[2]", "value": "comparable to the adenylate cyclase stimulator forskolin positive control"}, {"measurement": "bioavailability", "setting": "[4]", "value": "Poor"}]}
{"smiles": "O=C1C=C2C(=CCOC2O)O1", "note": "(stereo not drawn) [Patulin]", "values": [{"measurement": "EC50", "setting": "Nalm 6", "value": "0.07 ± 0.01", "unit": "µM"}, {"measurement": "EC50", "setting": "Reh", "value": "0.33 ± 0.13", "unit": "µM"}, {"measurement": "EC50", "setting": "RS4;11", "value": "1.01 ± 0.22", "unit": "µM"}, {"measurement": "EC50", "setting": "MHH Call 3", "value": "0.53 ± 0.17", "unit": "µM"}, {"measurement": "EC50", "setting": "[1]; [5]", "value": 7.36, "unit": "µM"}, {"measurement": "EC50", "setting": "[1]; [6]", "value": "1.79 ± 1.75", "unit": "µM"}, {"measurement": "EC50", "setting": "[1]; [7]", "value": "4.72 ± 2.1", "unit": "µM"}, {"measurement": "EC50", "setting": "[1]; [8]", "value": "0.4 ± 0.29", "unit": "µM"}, {"measurement": "EC50", "setting": "[1]; [10]", "value": "22.5 ± 11.8", "unit": "µM"}]}
